# Laboratory results: PubChem BioAssay (NCI)
#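 48-hour exposure; five concentrations; linearly interpolated endpoints. TGI: concentration producing complete growth inhibition.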
# How the values were obtained:
# Assay in all cases: NCI tumour cell line growth inhibition, 48 h
# HCT-15 colon = system: HCT-15 colon
# OVCAR-4 ovarian = system: OVCAR-4 ovarian
# OVCAR-5 ovarian = system: OVCAR-5 ovarian
# HL-60(TB) leukemia = system: HL-60(TB) leukemia
# T-47D breast = system: T-47D breast
# MALME-3M melanoma = system: MALME-3M melanoma
# CCRF-CEM leukemia = system: CCRF-CEM leukemia
# IGROV1 ovarian = system: IGROV1 ovarian
# TK-10 renal = system: TK-10 renal
# SF-295 CNS = system: SF-295 CNS
# 786-0 renal = system: 786-0 renal
# K-562 leukemia = system: K-562 leukemia
# HCT-116 colon = system: HCT-116 colon
Compound,TGI (HCT-15 colon),TGI (OVCAR-4 ovarian),TGI (OVCAR-5 ovarian),TGI (HL-60(TB) leukemia),TGI (T-47D breast),TGI (MALME-3M melanoma),TGI (CCRF-CEM leukemia),TGI (IGROV1 ovarian),TGI (TK-10 renal),TGI (SF-295 CNS),TGI (786-0 renal),TGI (K-562 leukemia),TGI (HCT-116 colon)
CC(=O)Nc1ccc2[nH]c(-c3cccc(F)c3)cc(=O)c2c1,> 100 µM,> 29.5 µM,> 100 µM,80.7 µM,> 100 µM,> 100 µM,> 100 µM,> 100 µM,> 100 µM,> 77.2 µM,> 100 µM,,
Cn1c2ccccc2c(=NNc2ccc(C(=O)O)cc2)c2ccccc21,38.9 µM,49 µM,48 µM,48.6 µM,58.9 µM,40.8 µM,40.5 µM,95 µM,62.4 µM,78.4 µM,84.4 µM,23.3 µM,34.5 µM
Cc1ccc(N=C2C(=O)C3=C(OC(C)(C)CC3)c3ccccc32)cc1,,2.18 µM,3.5 µM,3.21 µM,1.37 µM,1.7 µM,10.1 µM,2.03 µM,4.86 µM,2.7 µM,3.18 µM,0.86 µM,1.05 µM
Nc1nc(Cl)cc(Nc2cc(Cl)cc(Cl)c2)n1,42.6 µM,46.6 µM,76.7 µM,,98.9 µM,37.8 µM,51.7 µM,35.4 µM,45 µM,38.4 µM,33.7 µM,81.3 µM,33.3 µM
CCC(CCCC[C@@H]1CC[C@H]2CC(=O)C[C@@H]12)OC (some centres undefined),> 100 µM,> 100 µM,> 100 µM,> 100 µM,> 100 µM,> 100 µM,> 100 µM,> 100 µM,> 100 µM,> 100 µM,> 100 µM,> 100 µM,> 100 µM
COc1cccc(-c2cc(=O)c3c(C)ccnc3[nH]2)c1,,> 100 µM,> 100 µM,0.0532 µM,> 100 µM,> 100 µM,0.218 µM,> 100 µM,> 100 µM,> 100 µM,> 100 µM,0.397 µM,> 100 µM
CN(C)Cc1cc(N=Nc2ccccc2)cc(CN(C)C)c1O,> 100 µM,> 100 µM,> 100 µM,66.9 µM,> 100 µM,> 100 µM,94.3 µM,> 100 µM,> 100 µM,> 100 µM,> 100 µM,> 100 µM,> 100 µM
C1=C\CCCCN2C[C@H]3CCCC/C=C\CCCCN4CC[C@@H]([C@H](CCCCCC/1)C4)[C@H](C3)C2,3.27 µM,6.11 µM,21.4 µM,12.1 µM,4.6 µM,3.56 µM,,11.3 µM,5.8 µM,3.53 µM,3.16 µM,,4.41 µM
O=[N+]([O-])c1cccnc1NCC1(CO)CC(Cc2ccccc2)C1 (centres undefined),> 100 µM,> 100 µM,> 100 µM,> 100 µM,> 100 µM,> 100 µM,> 100 µM,> 100 µM,> 100 µM,> 100 µM,> 100 µM,> 100 µM,> 100 µM
S=C1N=C(Cl)C2(NN1)c1ccccc1-c1ccccc12,> 10 µM,> 10 µM,,> 10 µM,> 10 µM,> 10 µM,> 10 µM,> 10 µM,> 10 µM,,> 10 µM,> 10 µM,
CC[C@H]1OC([C@H](O)C/C=C\C#C[Si](C)(C)C)C/C=C\C[C@H]1O[Si](C)(C)C(C)(C)C (some centres undefined),> 100 µM,> 100 µM,> 100 µM,,> 100 µM,> 100 µM,> 100 µM,> 100 µM,,> 100 µM,> 100 µM,> 100 µM,> 100 µM
N/C(=N/n1c(=S)[nH]c2ccccc2c1=O)Nn1c(=S)[nH]c2ccccc2c1=O,55.5 µM,> 100 µM,> 100 µM,,66.3 µM,45.6 µM,48.2 µM,> 100 µM,> 100 µM,> 100 µM,34.2 µM,83.6 µM,30.4 µM
CC1C[C@]2(C)C(=O)N(c3ccccc3)C(=N)[C@@H]2N(C)c2ccccc21 (some centres undefined),> 100 µM,> 100 µM,> 100 µM,> 100 µM,> 100 µM,> 100 µM,> 100 µM,> 100 µM,> 100 µM,> 100 µM,> 100 µM,> 100 µM,> 100 µM
C(=C\C(SCc1ccccc1)SCc1ccccc1)/c1ccccc1,> 10 µM,> 10 µM,,> 10 µM,> 10 µM,> 10 µM,> 10 µM,> 10 µM,> 10 µM,> 10 µM,> 10 µM,> 10 µM,> 10 µM
COC(=O)/N=[N+](\[O-])C(c1ccc(OC)cc1)C1CCCCC1 (centres undefined),23.5 µM,> 100 µM,11.9 µM,2.78 µM,40.3 µM,11.8 µM,20.6 µM,> 100 µM,25.9 µM,16.4 µM,32.4 µM,44.8 µM,4.41 µM
O=C1CCCCc2cccc(O)c21,> 100 µM,> 100 µM,> 100 µM,> 100 µM,> 100 µM,> 100 µM,> 100 µM,> 100 µM,> 100 µM,> 100 µM,> 100 µM,> 100 µM,> 100 µM
CCCCOC(=O)C(O)Cc1ccoc1 (centres undefined),> 100 µM,> 100 µM,> 100 µM,> 100 µM,> 100 µM,> 100 µM,> 100 µM,> 100 µM,> 100 µM,> 100 µM,> 100 µM,> 100 µM,> 100 µM
Cc1nc2c(sc3nc4ccccc4n32)c(=O)[nH]1,> 100 µM,> 100 µM,> 100 µM,,> 100 µM,> 100 µM,> 100 µM,> 100 µM,> 100 µM,> 100 µM,> 100 µM,,> 100 µM
c1cc2c(c(-c3c4ccccc4nc4ccccc34)c1)CC1(CC2)OCCO1,> 100 µM,> 100 µM,> 100 µM,,> 100 µM,> 100 µM,,> 100 µM,> 100 µM,> 100 µM,> 100 µM,> 100 µM,> 100 µM
